Results on two molecules are retold here after ChEMBL document CHEMBL1155905, “Carbonic anhydrase inhibitors. Interaction of the antitumor sulfamate EMD 486019 with twelve mammalian carbonic anhydrase isoforms: Kinetic and X-ray crystallographic studies” (Bioorg Med Chem Lett, 2008).

Among the targets are Carbonic anhydrase 13 (Mus musculus, UniProt Q9D6N1); Carbonic anhydrase 12 (Homo sapiens, UniProt O43570); Carbonic anhydrase 9 (Homo sapiens, UniProt Q16790); Carbonic anhydrase 6 (Homo sapiens, UniProt P23280); Carbonic anhydrase 14 (Homo sapiens, UniProt Q9ULX7); Carbonic anhydrase 4 (Homo sapiens, UniProt P22748); Carbonic anhydrase 1 (Homo sapiens, UniProt P00915); Carbonic anhydrase 3 (Homo sapiens, UniProt P07451).

For assay [1], the target named is Carbonic anhydrase 5B, mitochondrial (Homo sapiens, UniProt Q9Y2D0).
Chain of Carbonic anhydrase 5B, mitochondrial (Q9Y2D0 whole entry): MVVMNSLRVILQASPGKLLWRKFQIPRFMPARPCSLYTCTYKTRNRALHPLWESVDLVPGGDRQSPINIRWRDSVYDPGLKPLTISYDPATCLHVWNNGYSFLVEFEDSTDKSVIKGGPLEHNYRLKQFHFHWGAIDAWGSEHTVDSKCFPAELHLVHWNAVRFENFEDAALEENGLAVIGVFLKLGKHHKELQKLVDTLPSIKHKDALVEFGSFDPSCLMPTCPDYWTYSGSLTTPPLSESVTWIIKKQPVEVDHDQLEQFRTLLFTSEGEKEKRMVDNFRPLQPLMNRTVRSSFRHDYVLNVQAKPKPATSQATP
In assay [2] the target is Carbonic anhydrase 5A, mitochondrial (Homo sapiens, UniProt P35218).
Chain of Carbonic anhydrase 5A, mitochondrial (P35218 whole entry): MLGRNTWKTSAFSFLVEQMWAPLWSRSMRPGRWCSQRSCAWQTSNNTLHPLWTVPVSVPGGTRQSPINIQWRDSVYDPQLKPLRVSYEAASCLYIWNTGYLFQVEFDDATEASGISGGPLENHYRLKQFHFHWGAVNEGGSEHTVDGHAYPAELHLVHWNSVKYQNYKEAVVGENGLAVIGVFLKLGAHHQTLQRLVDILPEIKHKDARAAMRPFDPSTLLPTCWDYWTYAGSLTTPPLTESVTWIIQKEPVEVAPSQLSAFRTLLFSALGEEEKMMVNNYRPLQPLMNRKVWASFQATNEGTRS
Another assay deals with Carbonic anhydrase 7 (Homo sapiens, UniProt P43166). The assay can be described thus: Inhibition of human cloned CA7 by stopped-flow CO2 hydration method.
Chain of Carbonic anhydrase 7 (P43166 whole entry): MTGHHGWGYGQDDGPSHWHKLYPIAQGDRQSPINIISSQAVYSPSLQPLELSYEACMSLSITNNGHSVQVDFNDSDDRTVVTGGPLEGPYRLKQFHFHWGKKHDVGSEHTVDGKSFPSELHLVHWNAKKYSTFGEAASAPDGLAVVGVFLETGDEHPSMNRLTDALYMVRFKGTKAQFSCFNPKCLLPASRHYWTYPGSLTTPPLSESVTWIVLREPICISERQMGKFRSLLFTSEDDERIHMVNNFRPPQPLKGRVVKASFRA

For orientation: Ki means a dissociation constant, usually derived from enzyme kinetics or from competition with a known ligand. Read a high Ki as lower affinity.

Chain of Carbonic anhydrase 12 (O43570 whole entry): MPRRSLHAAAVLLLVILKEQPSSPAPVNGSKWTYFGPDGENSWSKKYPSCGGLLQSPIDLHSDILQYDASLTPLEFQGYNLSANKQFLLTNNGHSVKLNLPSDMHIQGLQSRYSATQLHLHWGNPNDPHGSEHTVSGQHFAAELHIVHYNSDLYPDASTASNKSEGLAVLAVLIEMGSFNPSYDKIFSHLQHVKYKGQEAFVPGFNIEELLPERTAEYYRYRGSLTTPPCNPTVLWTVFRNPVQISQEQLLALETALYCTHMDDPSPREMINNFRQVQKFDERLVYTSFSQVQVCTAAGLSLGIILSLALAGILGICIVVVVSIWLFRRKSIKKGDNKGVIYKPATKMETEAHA
Chain of Carbonic anhydrase 14 (Q9ULX7 whole entry): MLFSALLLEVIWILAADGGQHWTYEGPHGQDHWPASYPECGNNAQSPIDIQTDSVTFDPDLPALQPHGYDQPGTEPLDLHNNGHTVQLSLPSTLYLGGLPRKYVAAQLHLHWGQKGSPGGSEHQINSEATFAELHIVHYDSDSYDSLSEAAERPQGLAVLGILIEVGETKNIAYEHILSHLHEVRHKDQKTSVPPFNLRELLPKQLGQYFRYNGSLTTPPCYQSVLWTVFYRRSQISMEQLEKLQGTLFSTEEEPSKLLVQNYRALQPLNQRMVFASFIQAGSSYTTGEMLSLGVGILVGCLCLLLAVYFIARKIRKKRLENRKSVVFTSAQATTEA
Chain of Carbonic anhydrase 1 (P00915 whole entry): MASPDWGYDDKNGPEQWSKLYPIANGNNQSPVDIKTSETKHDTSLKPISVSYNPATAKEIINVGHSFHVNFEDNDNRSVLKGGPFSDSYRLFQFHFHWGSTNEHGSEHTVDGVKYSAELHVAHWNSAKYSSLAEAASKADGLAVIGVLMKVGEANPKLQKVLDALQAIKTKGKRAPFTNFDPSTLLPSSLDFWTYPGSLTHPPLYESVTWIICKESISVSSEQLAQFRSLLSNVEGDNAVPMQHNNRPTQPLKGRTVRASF
Chain of Carbonic anhydrase 4 (P22748 whole entry): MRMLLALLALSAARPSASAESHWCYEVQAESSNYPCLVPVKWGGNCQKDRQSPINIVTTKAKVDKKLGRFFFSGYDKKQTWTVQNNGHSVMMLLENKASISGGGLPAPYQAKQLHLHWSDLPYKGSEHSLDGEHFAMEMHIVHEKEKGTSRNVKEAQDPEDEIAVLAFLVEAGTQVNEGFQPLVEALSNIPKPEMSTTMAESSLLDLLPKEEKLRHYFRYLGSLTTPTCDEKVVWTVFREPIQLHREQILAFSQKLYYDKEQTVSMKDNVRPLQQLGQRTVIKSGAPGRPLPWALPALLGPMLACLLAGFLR
Chain of Carbonic anhydrase 3 (P07451 whole entry): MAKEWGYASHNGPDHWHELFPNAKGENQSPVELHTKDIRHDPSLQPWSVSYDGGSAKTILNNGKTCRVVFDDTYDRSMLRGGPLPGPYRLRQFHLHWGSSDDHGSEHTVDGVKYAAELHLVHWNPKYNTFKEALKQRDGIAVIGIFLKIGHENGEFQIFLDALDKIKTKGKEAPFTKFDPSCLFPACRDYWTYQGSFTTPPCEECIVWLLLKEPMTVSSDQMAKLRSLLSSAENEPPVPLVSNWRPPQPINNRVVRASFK
Chain of Carbonic anhydrase 6 (P23280 whole entry): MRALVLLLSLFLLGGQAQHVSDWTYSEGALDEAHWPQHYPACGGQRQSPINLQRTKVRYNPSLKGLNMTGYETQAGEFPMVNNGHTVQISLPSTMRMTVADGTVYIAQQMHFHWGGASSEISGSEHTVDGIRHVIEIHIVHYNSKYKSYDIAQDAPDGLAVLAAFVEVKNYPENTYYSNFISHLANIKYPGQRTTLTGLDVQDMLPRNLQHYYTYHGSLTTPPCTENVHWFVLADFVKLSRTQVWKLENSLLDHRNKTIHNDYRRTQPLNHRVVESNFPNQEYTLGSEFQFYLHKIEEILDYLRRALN
Chain of Carbonic anhydrase 13 (Q9D6N1 whole entry): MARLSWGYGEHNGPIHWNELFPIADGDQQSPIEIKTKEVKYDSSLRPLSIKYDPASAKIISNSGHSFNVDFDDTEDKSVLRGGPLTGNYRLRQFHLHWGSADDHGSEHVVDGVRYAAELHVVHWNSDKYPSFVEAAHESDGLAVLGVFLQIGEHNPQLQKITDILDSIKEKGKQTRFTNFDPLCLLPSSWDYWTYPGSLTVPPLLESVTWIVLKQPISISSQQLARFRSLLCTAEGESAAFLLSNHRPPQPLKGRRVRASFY
Description for Carbonic anhydrase 12: Inhibition of human cloned CA12 catalytic domain by stopped-flow CO2 hydration method
Description for Carbonic anhydrase 13: Inhibition of mouse CA13 by stopped-flow CO2 hydration method
Description for Carbonic anhydrase 3: Inhibition of human cloned CA3 by stopped-flow CO2 hydration method
Description for Carbonic anhydrase 6: Inhibition of human cloned CA6 by stopped-flow CO2 hydration method
Description for Carbonic anhydrase 9: Inhibition of human cloned CA9 catalytic domain by stopped-flow CO2 hydration method

Consider `NS(=O)(=O)Oc1ccc2c(c1)S(=O)(=O)C(CC1CCCCCC1)=C2`, for which the Ki on Carbonic anhydrase 13 amounted to 66 nM; on Carbonic anhydrase 12 it was 13 nM; on Carbonic anhydrase 9 it was 18 nM; at Carbonic anhydrase 6 it was 654 nM; on Carbonic anhydrase 14, 13 nM; at Carbonic anhydrase 4, 842 nM. In addition, the Ki was found to be 3600 nM at Carbonic anhydrase 1, 18 nM in assay [1], 682 nM in assay [2] and 740000 nM at Carbonic anhydrase 3.

As to `NS(=O)(=O)Oc1ccc2c3c(c(=O)oc2c1)CCCCC3` [IROSUSTAT], the Ki at Carbonic anhydrase 13 is 1050 nM; at Carbonic anhydrase 12, 12 nM; on Carbonic anhydrase 7, 23 nM; at Carbonic anhydrase 9 it was 34 nM; on Carbonic anhydrase 6 it was 653 nM; at Carbonic anhydrase 14, 755 nM. The Ki worked out at 24 nM at Carbonic anhydrase 4; 3450 nM on Carbonic anhydrase 1; 720 nM in assay [1]; 765 nM in assay [2]; 700000 nM at Carbonic anhydrase 3.
